Measured values reported in US20230085307A1, “PYRIDAZINONE COMPOUND AND HERBICIDE” (NISSAN CHEMICAL CORPORATION, priority 2019, published 2023).

Legend:
blackgrass [1] = test: Test Example 5: herbicidal effect by foliage application, plastic box (Table 20, symbol J); assay type: in vivo, blackgrass (Alopecurus myosuroides); conditions: foliage application, 320 g/ha, three weeks after application
Method in brief: (§1)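 Plants sown in sterilized diluvial soil and grown 14 days in a greenhouse at 25° C to 30° C, then sprayed on the foliage with the compound's emulsion diluted in water to a predetermined herbicide amount. Injury to weeds and crops scored three weeks after application on a visual rating scale.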

oval-leafed pondweed = test: Test Example 1: herbicidal activity, application before weed generation under submerged conditions (Table 16, symbol C); assay type: in vivo, oval-leafed pondweed (Monochoria vaginalis); conditions: 320 g/ha applied herbicide
Method in brief: (§2)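 Submerged Wagner pots (alluvial soil, 4 cm water) sown with weed seeds and planted with 2.5-leaf rice seedlings; emulsifiable concentrate diluted in water applied to water surface on sowing day. Held in greenhouse at 25-30 °C; injury scored 0-5 by herbicidal rate after three weeks.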

Chinese sprangletop = test: Test Example 3: herbicidal effect by foliage application, Wagner pot (Table 18, symbol D); assay type: in vivo, chinese sprangletop (Leptochloa chinensis); conditions: 320 g/ha
Method in brief: (§3)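 Plants were sown in alluvial soil held under 0.1–0.5 cm standing water and grown 14 days in a greenhouse at 25–30 °C. An emulsifiable formulation, water-diluted to the set dose, was then sprayed onto the foliage, and effects were scored three weeks later using previously defined criteria.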

Italian ryegrass [2] = test: Test Example 5: herbicidal effect by foliage application, plastic box (Table 20, symbol K); assay type: in vivo, Italian ryegrass (Lolium multiflorum); conditions: foliage application, 320 g/ha, three weeks after application
Method in brief: as §1

wild oat [3] = test: Test Example 5: herbicidal effect by foliage application, plastic box (Table 20, symbol I); assay type: in vivo, wild oat (Avena fatua); conditions: foliage application, 320 g/ha, three weeks after application
Method in brief: as §1

Japanese bulrush = test: Test Example 1: herbicidal activity, application before weed generation under submerged conditions (Table 16, symbol B); assay type: in vivo, Japanese bulrush (Schoenoplectus juncoides); conditions: 320 g/ha applied herbicide
Method in brief: as §2

false cleavers [4] = test: Test Example 4: herbicidal effect by soil treatment (Table 19, symbol Q); assay type: in vivo, false cleavers (Galium spurium); conditions: amount of applied herbicide 320 g/ha
Method in brief: (§4)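 Seeds were sown in sterilized diluvial soil and covered with about 1.5 cm of soil. An emulsion formulation diluted with water to a predetermined herbicide amount was sprayed evenly onto the soil surface. Plants grew in a greenhouse at 25° C. to 30° C., and the effect was scored three weeks after application using criteria from an earlier test.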

windgrass [5] = test: Test Example 5: herbicidal effect by foliage application, plastic box (Table 20, symbol L); assay type: in vivo, windgrass (Apera spica-venti); conditions: foliage application, 320 g/ha, three weeks after application
Method in brief: as §1

velvetleaf [6] = test: Test Example 5: herbicidal effect by foliage application, plastic box (Table 20, symbol M); assay type: in vivo, velvetleaf (Abutilon theophrasti); conditions: foliage application, 320 g/ha, three weeks after application
Method in brief: as §1

chickweed [7] = test: Test Example 4: herbicidal effect by soil treatment (Table 19, symbol P); assay type: in vivo, common chickweed (Stellaria media); conditions: amount of applied herbicide 320 g/ha
Method in brief: as §4

southern crabgrass [8] = test: Test Example 5: herbicidal effect by foliage application, plastic box (Table 20, symbol F); assay type: in vivo, southern crabgrass (Digitaria ciliaris); conditions: foliage application, 320 g/ha, three weeks after application
Method in brief: as §1

persian speedwell [9] = test: Test Example 4: herbicidal effect by soil treatment (Table 19, symbol R); assay type: in vivo, Persian speedwell (Veronica persica); conditions: amount of applied herbicide 320 g/ha
Method in brief: as §4

persian speedwell [10] = test: Test Example 5: herbicidal effect by foliage application, plastic box (Table 20, symbol R); assay type: in vivo, Persian speedwell (Veronica persica); conditions: foliage application, 320 g/ha, three weeks after application
Method in brief: as §1

wild oat [11] = test: Test Example 4: herbicidal effect by soil treatment (Table 19, symbol I); assay type: in vivo, wild oat (Avena fatua); conditions: amount of applied herbicide 320 g/ha
Method in brief: as §4

Italian ryegrass [12] = test: Test Example 4: herbicidal effect by soil treatment (Table 19, symbol K); assay type: in vivo, Italian ryegrass (Lolium multiflorum); conditions: amount of applied herbicide 320 g/ha
Method in brief: as §4

windgrass [13] = test: Test Example 4: herbicidal effect by soil treatment (Table 19, symbol L); assay type: in vivo, windgrass (Apera spica-venti); conditions: amount of applied herbicide 320 g/ha
Method in brief: as §4

rice flat sedge = test: Test Example 3: herbicidal effect by foliage application, Wagner pot (Table 18, symbol E); assay type: in vivo, rice flat sedge (Cyperus iria); conditions: 320 g/ha
Method in brief: as §3

blackgrass [14] = test: Test Example 4: herbicidal effect by soil treatment (Table 19, symbol J); assay type: in vivo, blackgrass (Alopecurus myosuroides); conditions: amount of applied herbicide 320 g/ha
Method in brief: as §4

false cleavers [15] = test: Test Example 5: herbicidal effect by foliage application, plastic box (Table 20, symbol Q); assay type: in vivo, false cleavers (Galium spurium); conditions: foliage application, 320 g/ha, three weeks after application
Method in brief: as §1

southern crabgrass [16] = test: Test Example 4: herbicidal effect by soil treatment (Table 19, symbol F); assay type: in vivo, southern crabgrass (Digitaria ciliaris); conditions: amount of applied herbicide 320 g/ha
Method in brief: as §4

green foxtail [17] = test: Test Example 4: herbicidal effect by soil treatment (Table 19, symbol G); assay type: in vivo, green foxtail (Setaria viridis); conditions: amount of applied herbicide 320 g/ha
Method in brief: as §4

late watergrass = test: Test Example 1: herbicidal activity, application before weed generation under submerged conditions (Table 16, symbol A); assay type: in vivo, late watergrass (Echinochloa oryzicola); conditions: 320 g/ha applied herbicide
Method in brief: as §2

redroot pigweed [18] = test: Test Example 4: herbicidal effect by soil treatment (Table 19, symbol N); assay type: in vivo, redroot pigweed (Amaranthus retroflexus); conditions: amount of applied herbicide 320 g/ha
Method in brief: as §4

lambsquarters [19] = test: Test Example 4: herbicidal effect by soil treatment (Table 19, symbol O); assay type: in vivo, lambsquarters (Chenopodium album); conditions: amount of applied herbicide 320 g/ha
Method in brief: as §4

green foxtail [20] = test: Test Example 5: herbicidal effect by foliage application, plastic box (Table 20, symbol G); assay type: in vivo, green foxtail (Setaria viridis); conditions: foliage application, 320 g/ha, three weeks after application
Method in brief: as §1

barnyard grass [21] = test: Test Example 4: herbicidal effect by soil treatment (Table 19, symbol H); assay type: in vivo, barnyard grass (Echinochloa crus-galli); conditions: amount of applied herbicide 320 g/ha
Method in brief: as §4

lambsquarters [22] = test: Test Example 5: herbicidal effect by foliage application, plastic box (Table 20, symbol O); assay type: in vivo, lambsquarters (Chenopodium album); conditions: foliage application, 320 g/ha, three weeks after application
Method in brief: as §1

redroot pigweed [23] = test: Test Example 5: herbicidal effect by foliage application, plastic box (Table 20, symbol N); assay type: in vivo, redroot pigweed (Amaranthus retroflexus); conditions: foliage application, 320 g/ha, three weeks after application
Method in brief: as §1

barnyard grass [24] = test: Test Example 3: herbicidal effect by foliage application, Wagner pot (Table 18, symbol H); assay type: in vivo, barnyard grass (Echinochloa crus-galli); conditions: 320 g/ha
Method in brief: as §3

chickweed [25] = test: Test Example 5: herbicidal effect by foliage application, plastic box (Table 20, symbol P); assay type: in vivo, common chickweed (Stellaria media); conditions: foliage application, 320 g/ha, three weeks after application
Method in brief: as §1

velvetleaf [26] = test: Test Example 4: herbicidal effect by soil treatment (Table 19, symbol M); assay type: in vivo, velvetleaf (Abutilon theophrasti); conditions: amount of applied herbicide 320 g/ha
Method in brief: as §4

barnyard grass [27] = test: Test Example 5: herbicidal effect by foliage application, plastic box (Table 20, symbol H); assay type: in vivo, barnyard grass (Echinochloa crus-galli); conditions: foliage application, 320 g/ha, three weeks after application
Method in brief: as §1

Compound | herbicidal effect grade, J: blackgrass (blackgrass [1]) | Herbicidal effect on C: oval-leafed pondweed (grade 0-5) (oval-leafed pondweed) | herbicidal effect on D (Chinese sprangletop), rating 0-5 (Chinese sprangletop) | herbicidal effect grade, K: Italian ryegrass (Italian ryegrass [2]) | herbicidal effect grade, I: wild oat (wild oat [3]) | Herbicidal effect on B: Japanese bulrush (grade 0-5) (Japanese bulrush) | herbicidal effect rating, Q: false cleavers (false cleavers [4]) | herbicidal effect grade, L: windgrass (windgrass [5]) | herbicidal effect grade, M: velvetleaf (velvetleaf [6]) | herbicidal effect rating, P: chickweed (chickweed [7]) | herbicidal effect grade, F: southern crabgrass (southern crabgrass [8]) | herbicidal effect rating, R: persian speedwell (persian speedwell [9]) | herbicidal effect grade, R: persian speedwell (persian speedwell [10]) | herbicidal effect rating, I: wild oat (wild oat [11]) | herbicidal effect rating, K: Italian ryegrass (Italian ryegrass [12]) | herbicidal effect rating, L: windgrass (windgrass [13]) | herbicidal effect on E (rice flat sedge), rating 0-5 (rice flat sedge) | herbicidal effect rating, J: blackgrass (blackgrass [14]) | herbicidal effect grade, Q: false cleavers (false cleavers [15]) | herbicidal effect rating, F: southern crabgrass (southern crabgrass [16]) | also measured
CCCC(=O)Oc1c(C)nn(C)c(=O)c1-c1c(-c2ccc(F)cc2OCC)sc2ccccc12 [1-062] | 5 (Herbicidal rate of 90% or more (almost completely withered)) | 0 (Herbicidal rate of 5% or less (almost no effect)) | 3 (Herbicidal rate of 40% or more and less than 70%) | 3 (Herbicidal rate of 40% or more and less than 70%) | 3 (Herbicidal rate of 40% or more and less than 70%) | 2 (Herbicidal rate of 20% or more and less than 40%) | 5 (Herbicidal rate of 90% or more (almost completely withered)) | 5 (Herbicidal rate of 90% or more (almost completely withered)) | 5 (Herbicidal rate of 90% or more (almost completely withered)) | 3 (Herbicidal rate of 40% or more and less than 70%) | 5 (Herbicidal rate of 90% or more (almost completely withered)) | 4 (Herbicidal rate of 70% or more and less than 90%) | 5 (Herbicidal rate of 90% or more (almost completely withered)) | 1 (Herbicidal rate of 5% or more and less than 20%) | 4 (Herbicidal rate of 70% or more and less than 90%) | 3 (Herbicidal rate of 40% or more and less than 70%) | 5 (Herbicidal rate of 90% or more (almost completely withered)) | 5 (Herbicidal rate of 90% or more (almost completely withered)) | 5 (Herbicidal rate of 90% or more (almost completely withered)) | 5 (Herbicidal rate of 90% or more (almost completely withered)) | herbicidal effect rating, G: green foxtail (green foxtail [17]): 4 (Herbicidal rate of 70% or more and less than 90%); Herbicidal effect on A: late watergrass (grade 0-5) (late watergrass): 2 (Herbicidal rate of 20% or more and less than 40%); herbicidal effect rating, N: redroot pigweed (redroot pigweed [18]): 5 (Herbicidal rate of 90% or more (almost completely withered)); herbicidal effect rating, O: lambsquarters (lambsquarters [19]): 0 (Herbicidal rate of 5% or less (almost no effect)); herbicidal effect grade, G: green foxtail (green foxtail [20]): 5 (Herbicidal rate of 90% or more (almost completely withered)); herbicidal effect rating, H: barnyard grass (barnyard grass [21]): 4 (Herbicidal rate of 70% or more and less than 90%); herbicidal effect grade, O: lambsquarters (lambsquarters [22]): 3 (Herbicidal rate of 40% or more and less than 70%); herbicidal effect grade, N: redroot pigweed (redroot pigweed [23]): 5 (Herbicidal rate of 90% or more (almost completely withered)); herbicidal effect on H (barnyard grass), rating 0-5 (barnyard grass [24]): 5 (Herbicidal rate of 90% or more (almost completely withered)); herbicidal effect grade, P: chickweed (chickweed [25]): 5 (Herbicidal rate of 90% or more (almost completely withered)); herbicidal effect rating, M: velvetleaf (velvetleaf [26]): 3 (Herbicidal rate of 40% or more and less than 70%); herbicidal effect grade, H: barnyard grass (barnyard grass [27]): 4 (Herbicidal rate of 70% or more and less than 90%)
Cc1ccc(-c2sc3ccccc3c2-c2c(O)c(C)nn(C)c2=O)cc1C [1-065] | 0 (Herbicidal rate of 5% or less (almost no effect)) | 0 (Herbicidal rate of 5% or less (almost no effect)) | 3 (Herbicidal rate of 40% or more and less than 70%) | 2 (Herbicidal rate of 20% or more and less than 40%) | 0 (Herbicidal rate of 5% or less (almost no effect)) | 0 (Herbicidal rate of 5% or less (almost no effect)) | 0 (Herbicidal rate of 5% or less (almost no effect)) | 0 (Herbicidal rate of 5% or less (almost no effect)) | 5 (Herbicidal rate of 90% or more (almost completely withered)) | 3 (Herbicidal rate of 40% or more and less than 70%) | 3 (Herbicidal rate of 40% or more and less than 70%) | 4 (Herbicidal rate of 70% or more and less than 90%) | 5 (Herbicidal rate of 90% or more (almost completely withered)) | 0 (Herbicidal rate of 5% or less (almost no effect)) | 0 (Herbicidal rate of 5% or less (almost no effect)) | 0 (Herbicidal rate of 5% or less (almost no effect)) | 5 (Herbicidal rate of 90% or more (almost completely withered)) | 0 (Herbicidal rate of 5% or less (almost no effect)) | 3 (Herbicidal rate of 40% or more and less than 70%) | 0 (Herbicidal rate of 5% or less (almost no effect)) | herbicidal effect rating, G: green foxtail (green foxtail [17]): 0 (Herbicidal rate of 5% or less (almost no effect)); Herbicidal effect on A: late watergrass (grade 0-5) (late watergrass): 3 (Herbicidal rate of 40% or more and less than 70%); herbicidal effect rating, N: redroot pigweed (redroot pigweed [18]): 0 (Herbicidal rate of 5% or less (almost no effect)); herbicidal effect rating, O: lambsquarters (lambsquarters [19]): 0 (Herbicidal rate of 5% or less (almost no effect)); herbicidal effect grade, G: green foxtail (green foxtail [20]): 3 (Herbicidal rate of 40% or more and less than 70%); herbicidal effect rating, H: barnyard grass (barnyard grass [21]): 0 (Herbicidal rate of 5% or less (almost no effect)); herbicidal effect grade, O: lambsquarters (lambsquarters [22]): 3 (Herbicidal rate of 40% or more and less than 70%); herbicidal effect grade, N: redroot pigweed (redroot pigweed [23]): 3 (Herbicidal rate of 40% or more and less than 70%); herbicidal effect on H (barnyard grass), rating 0-5 (barnyard grass [24]): 3 (Herbicidal rate of 40% or more and less than 70%); herbicidal effect grade, P: chickweed (chickweed [25]): 5 (Herbicidal rate of 90% or more (almost completely withered)); herbicidal effect rating, M: velvetleaf (velvetleaf [26]): 0 (Herbicidal rate of 5% or less (almost no effect)); herbicidal effect grade, H: barnyard grass (barnyard grass [27]): 3 (Herbicidal rate of 40% or more and less than 70%)
